For assay [1], the target named is Serine/threonine-protein kinase Nek7 (Homo sapiens, UniProt Q8TDX7).
Assay [2] addresses T1, Protein kinase C zeta type (Homo sapiens, UniProt Q05513).
T1 sequence (Q05513 whole entry): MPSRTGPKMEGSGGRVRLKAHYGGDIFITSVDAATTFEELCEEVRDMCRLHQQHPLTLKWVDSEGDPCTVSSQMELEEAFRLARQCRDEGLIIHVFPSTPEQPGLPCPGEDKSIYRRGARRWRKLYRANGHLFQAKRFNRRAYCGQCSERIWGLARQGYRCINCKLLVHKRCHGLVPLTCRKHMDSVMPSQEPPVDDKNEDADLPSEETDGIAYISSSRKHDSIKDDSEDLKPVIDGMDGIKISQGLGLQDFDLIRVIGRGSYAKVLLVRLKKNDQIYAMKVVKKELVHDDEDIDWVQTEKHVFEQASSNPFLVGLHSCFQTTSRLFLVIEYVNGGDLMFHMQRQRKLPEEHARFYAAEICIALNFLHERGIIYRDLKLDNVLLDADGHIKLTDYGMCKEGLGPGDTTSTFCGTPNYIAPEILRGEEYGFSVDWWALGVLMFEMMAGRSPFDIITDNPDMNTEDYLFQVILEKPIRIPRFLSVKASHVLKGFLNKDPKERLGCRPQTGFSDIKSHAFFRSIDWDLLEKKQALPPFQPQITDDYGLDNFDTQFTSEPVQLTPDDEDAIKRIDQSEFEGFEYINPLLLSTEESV

The next assay addresses T2, UMP-CMP kinase (Homo sapiens, UniProt P30085).
T2 sequence (P30085 whole entry): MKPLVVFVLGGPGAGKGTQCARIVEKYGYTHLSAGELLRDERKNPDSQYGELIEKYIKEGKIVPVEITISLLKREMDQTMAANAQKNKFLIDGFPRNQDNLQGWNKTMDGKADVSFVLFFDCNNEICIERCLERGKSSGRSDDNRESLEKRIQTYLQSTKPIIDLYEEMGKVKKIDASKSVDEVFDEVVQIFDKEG

In assay [3] the target is Serine/threonine-protein kinase PLK1 (Homo sapiens, UniProt P53350).
Sequence of Serine/threonine-protein kinase PLK1 (P53350 whole entry): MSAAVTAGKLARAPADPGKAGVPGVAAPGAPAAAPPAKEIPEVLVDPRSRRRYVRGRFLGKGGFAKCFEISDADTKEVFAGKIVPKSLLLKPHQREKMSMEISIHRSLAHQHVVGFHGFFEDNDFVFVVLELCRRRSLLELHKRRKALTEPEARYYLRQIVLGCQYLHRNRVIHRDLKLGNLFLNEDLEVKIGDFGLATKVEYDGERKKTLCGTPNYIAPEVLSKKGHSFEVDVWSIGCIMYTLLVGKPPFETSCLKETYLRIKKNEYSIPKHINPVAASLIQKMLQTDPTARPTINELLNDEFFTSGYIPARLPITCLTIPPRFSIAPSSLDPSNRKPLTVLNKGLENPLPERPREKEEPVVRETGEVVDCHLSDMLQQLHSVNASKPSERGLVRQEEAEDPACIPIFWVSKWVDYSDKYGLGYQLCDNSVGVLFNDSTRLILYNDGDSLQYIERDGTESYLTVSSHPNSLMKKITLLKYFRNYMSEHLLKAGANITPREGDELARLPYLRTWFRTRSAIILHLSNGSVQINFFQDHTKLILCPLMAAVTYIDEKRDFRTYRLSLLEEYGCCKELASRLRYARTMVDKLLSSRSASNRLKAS
The target of assay [4] is T3, Dual specificity mitogen-activated protein kinase kinase 4 (Homo sapiens, UniProt P45985).
T3 sequence (P45985 whole entry): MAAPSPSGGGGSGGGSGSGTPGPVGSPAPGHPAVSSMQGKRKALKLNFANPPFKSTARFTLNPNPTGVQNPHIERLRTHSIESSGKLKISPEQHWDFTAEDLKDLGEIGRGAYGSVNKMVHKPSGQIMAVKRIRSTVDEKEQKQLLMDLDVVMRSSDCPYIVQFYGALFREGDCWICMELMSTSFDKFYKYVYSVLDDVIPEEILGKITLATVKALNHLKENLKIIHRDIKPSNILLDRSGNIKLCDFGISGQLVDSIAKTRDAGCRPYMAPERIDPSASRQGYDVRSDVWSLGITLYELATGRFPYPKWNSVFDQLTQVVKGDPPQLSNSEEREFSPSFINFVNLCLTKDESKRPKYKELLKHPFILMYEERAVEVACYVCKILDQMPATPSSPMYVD

The target in assay [5] is MAP kinase-activated protein kinase 3 (Homo sapiens, UniProt Q16644).
Sequence of MAP kinase-activated protein kinase 3 (Q16644 whole entry): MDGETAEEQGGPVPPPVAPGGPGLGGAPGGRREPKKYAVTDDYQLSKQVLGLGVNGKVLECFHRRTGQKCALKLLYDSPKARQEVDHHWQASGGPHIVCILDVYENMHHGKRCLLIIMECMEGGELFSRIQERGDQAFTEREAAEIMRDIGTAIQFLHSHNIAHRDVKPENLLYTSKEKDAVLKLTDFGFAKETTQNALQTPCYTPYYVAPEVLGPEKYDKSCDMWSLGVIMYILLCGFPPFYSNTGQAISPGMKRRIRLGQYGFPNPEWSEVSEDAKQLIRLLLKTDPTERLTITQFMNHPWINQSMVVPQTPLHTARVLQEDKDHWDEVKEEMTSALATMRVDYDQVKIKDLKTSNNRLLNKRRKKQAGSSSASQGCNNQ

Where a name gives a salt, the structure may show the parent alone. Active and inactive are the calls of the source. On the calls: in the data inactive means no Kd found up to 30 µM.

Sequence of Serine/threonine-protein kinase Nek7 (Q8TDX7 whole entry): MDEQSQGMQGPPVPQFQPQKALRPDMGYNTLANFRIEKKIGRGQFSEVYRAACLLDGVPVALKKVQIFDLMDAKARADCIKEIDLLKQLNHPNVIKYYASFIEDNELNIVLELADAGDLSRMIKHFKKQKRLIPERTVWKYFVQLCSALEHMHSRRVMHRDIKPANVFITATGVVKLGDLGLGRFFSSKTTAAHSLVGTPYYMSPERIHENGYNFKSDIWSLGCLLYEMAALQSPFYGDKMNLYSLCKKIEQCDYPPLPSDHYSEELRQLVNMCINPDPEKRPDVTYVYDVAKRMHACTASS

For orientation: Kd means the constant that tells how readily two partners part at equilibrium. For the molecule `C[C@@H](Oc1cc(C(=O)Nc2ccc(C(=O)N3CCN(C)CC3)cc2)nnc1N)c1c(Cl)ccc(F)c1Cl`, in assay [1], the Kd was > 30 µM (inactive).

For the molecule `C[C@H]1CNCCCN1S(=O)(=O)c1cccc2cncc(F)c12`, the Kd in assay [2] and in assay [1] was > 30 µM (inactive) throughout.

For `CC(=O)c1cnc2ccc(-c3cc(Cl)c(O)c(Cl)c3)nc2c1N[C@H]1CC[C@H](CN(C)C)CC1`, the Kd (at UMP-CMP kinase; in assay [1]) was > 30 µM (inactive) throughout.

With `CCNC(=O)C#Cc1ccc2c(c1)NC(=O)/C2=C(\Nc1ccc(CN(C)C)cc1)c1ccccc1`, the Kd in assay [2] and in assay [1] was > 30 µM (inactive) throughout.

Turning to `COCc1c(-c2ccc(NC(=O)Nc3cc(C(F)(F)F)ccc3F)c(F)c2)c2c(N)ncnn2c1CN1CCOCC1`, the Kd in assay [3] was > 30 µM (inactive).

Regarding `COc1cc(Nc2ncc3c(n2)-c2ccc(Cl)cc2C(c2c(F)cccc2OC)=NC3)ccc1C(=O)O` [ALISERTIB], the Kd (at UMP-CMP kinase; in assay [4]; in assay [1]) was > 30 µM (inactive) throughout.

`Cc1nc(NC(=O)N2CCC[C@H]2C(N)=O)sc1-c1ccnc(C(C)(C)C(F)(F)F)c1` [ALPELISIB]: the Kd (at UMP-CMP kinase; in assay [4]) was > 30 µM (inactive) throughout.

In the case of `O=C(Nc1c[nH]nc1-c1nc2cc(CN3CCOCC3)ccc2[nH]1)NC1CC1` [AT-9283], the Kd (at UMP-CMP kinase; in assay [3]; in assay [1]) was > 30 µM (inactive) each time.

As to `C=CC(=O)Nc1cc2c(Nc3ccc(F)c(Cl)c3)ncnc2cc1C#CC(C)(C)N1CCN(C)CC1` [AV-412 FREE BASE], the Kd in assay [5] and in assay [2] was > 30 µM (inactive) each time.

On to `CNC(=O)c1ccccc1Sc1ccc2c(/C=C/c3ccccn3)n[nH]c2c1` [AXITINIB], for which the Kd (at UMP-CMP kinase; in assay [2]) was > 30 µM (inactive) in each case.

Consider `COc1cc([C@@H]2c3cc4c(cc3[C@H](O)[C@H]3COC(=O)[C@@H]23)OCO4)cc(OC)c1OC` [AXL-1717], for which the Kd at UMP-CMP kinase is > 30 µM (inactive).

Consider `NC(=O)Nc1cc(-c2cccc(F)c2)sc1C(=O)N[C@H]1CCCNC1` [AZD-7762], for which the Kd (at UMP-CMP kinase; in assay [1]) was > 30 µM (inactive) throughout.

In the case of `Cc1cc(C(=O)NOCCO)c(Nc2ccc(I)cc2F)n(C)c1=O` [AZD-8330], the Kd (on UMP-CMP kinase; in assay [3]; in assay [4]; in assay [1]) was > 30 µM (inactive) each time.

In the case of `CCn1c(C(=O)N(C2CC2)C2CC2)cc2c3c(ncn3C)c(Nc3cc(C)n(C)n3)nc21` [BMS-911543], the Kd (on UMP-CMP kinase; in assay [5]; in assay [3]; in assay [1]) was > 30 µM (inactive) each time.

As for `C#Cc1cccc(Nc2ncnc3cc(OC)c(OCCCCCCC(=O)NO)cc23)c1` [CUDC-101], the Kd in assay [5], in assay [3] and in assay [2] was > 30 µM (inactive) in each case.

Turning to `CCS(=O)(=O)N1CCN(c2ccc(Nc3ncc(C(N)=O)c(NC4CC4)n3)cc2)CC1` [Cerdulatinib Hydrochloride], the Kd in assay [5] and in assay [2] was > 30 µM (inactive) throughout.

`Cn1cc(C2=C(c3cn(C4CCN(Cc5ccccn5)CC4)c4ccccc34)C(=O)NC2=O)c2ccccc21` [ENZASTAURIN]: the Kd in assay [5] is > 30 µM (inactive).

Regarding `Cc1nc2cc(-n3ncc(C(=O)c4cc5ccccc5[nH]4)c3N)ccc2[nH]1` [FGFR INHIBITOR DEBIO 1347], the Kd on UMP-CMP kinase is > 30 µM (inactive).

With `O=C(Nc1nc2cccc(-c3ccc(CN4CCS(=O)(=O)CC4)cc3)n2n1)C1CC1` [FILGOTINIB], the Kd (on UMP-CMP kinase; in assay [3]; in assay [4]; in assay [1]) was > 30 µM (inactive) throughout.

In the case of `Cc1cccc(-c2nn3c(c2-c2ccnc4ccc(C(N)=O)cc24)CCC3)n1` [GALUNISERTIB], the Kd in assay [3] and in assay [1] was > 30 µM (inactive) throughout.

Turning to `C[C@@H](Oc1cc(-n2cnc3ccc(CN4CCN(C)CC4)cc32)sc1C(N)=O)c1ccccc1C(F)(F)F` [GSK-461364], the Kd in assay [5] and in assay [2] was > 30 µM (inactive) each time.

Turning to `CCn1cc(-c2ccnc3[nH]c(-c4cccc(CN(C)C)c4)cc23)c(-c2ccc(NC(=O)N(C)C)cc2)n1` [GSK-1070916], the Kd in assay [4] and in assay [1] was > 30 µM (inactive) each time.

Turning to `COc1ccc(S(=O)(=O)N(C(C)=O)c2ccccc2/C=C/c2cc[n+]([O-])cc2)cc1` [HMN-214], the Kd in assay [3], in assay [2] and in assay [1] was > 30 µM (inactive) in each case.

Consider `CNC(=O)c1cccc2cc(Oc3ccnc4cc(OCC5(N)CC5)c(OC)cc34)ccc12` [LUCITANIB], for which the Kd (at UMP-CMP kinase; in assay [3]; in assay [1]) was > 30 µM (inactive) throughout.

Regarding `CN(C[C@@H]1COCCO1)S(=O)(=O)Nc1ccc2ccc3ncc(-c4cnn(C)c4)cc3c(=O)c2c1` [MK-2461], on UMP-CMP kinase, the Kd was > 30 µM (inactive).

Consider `Cn1cc(-c2cnc3ccc4ccc(CS(=O)(=O)NCc5ccccn5)cc4c(=O)c3c2)cn1` [MK-8033], for which the Kd (at UMP-CMP kinase; in assay [3]; in assay [1]) was > 30 µM (inactive) throughout.

As to `Cc1[nH]c(/C=C2\C(=O)Nc3ccccc32)c(C)c1CCC(=O)O` [ORANTINIB], the Kd in assay [4] and in assay [1] was > 30 µM (inactive) throughout.

Consider `NC(=O)c1c(OCc2c(F)cc(Br)cc2F)nsc1NC(=O)NCCCCN1CCCC1` [OSI-632], for which the Kd in assay [4] is > 30 µM (inactive).

For `CCCCCCCCCCCCCCCCCCOP(=O)([O-])OC1CC[N+](C)(C)CC1` [PERIFOSINE], the Kd at UMP-CMP kinase was > 30 µM (inactive).

In the case of `Cc1nc(Nc2n[nH]c3c2CN(C(=O)N[C@H](CN(C)C)c2ccccc2)C3(C)C)c2sccc2n1` [PF-03758309], the Kd (at UMP-CMP kinase; in assay [3]; in assay [2]; in assay [4]) was > 30 µM (inactive) each time.

Regarding `N#CC1(c2ccc(NC(=O)c3cccnc3NCc3ccncc3)cc2)CCCC1` [RIVOCERANIB], the Kd (at UMP-CMP kinase; in assay [2]; in assay [1]) was > 30 µM (inactive) throughout.

`O=C(NOCCO)c1cc(CN2OCCCC2=O)c(F)c(F)c1Nc1ccc(I)cc1F` [RO-4987655]: the Kd in assay [5] and in assay [2] was > 30 µM (inactive) each time.

For the molecule `CN1CCN(CCOc2cc(OC3CCOCC3)c3c(Nc4c(Cl)ccc5c4OCO5)ncnc3c2)CC1` [SARACATINIB], the Kd in assay [3], in assay [2], in assay [4] and in assay [1] was > 30 µM (inactive) throughout.

Regarding `Cn1cc(-c2cnn3c(N)c(Br)c([C@@H]4CCCNC4)nc23)cn1` [SCH-900776], the Kd (on UMP-CMP kinase; in assay [2]; in assay [1]) was > 30 µM (inactive) throughout.

In the case of `O=C(Cc1ccc(-c2ccc(OCCN3CCOCC3)cc2)cn1)NCc1ccccc1` [TIRBANIBULIN], the Kd (on UMP-CMP kinase; in assay [3]; in assay [2]; in assay [4]; in assay [1]) was > 30 µM (inactive) each time.

In the case of `O=C1NC(=O)[C@@H](c2cn3c4c(cccc24)CCC3)[C@@H]1c1c[nH]c2ccccc12` [TIVANTINIB], the Kd (on UMP-CMP kinase; in assay [5]; in assay [2]; in assay [1]) was > 30 µM (inactive) throughout.

With `Cn1ncc(Cl)c1-c1cc(C(=O)N[C@H](CN)Cc2ccc(F)c(F)c2)oc1Cl` [UPROSERTIB], on UMP-CMP kinase, the Kd was > 30 µM (inactive).

`CC(C)c1cc(CNc2nc(Nc3cc(C4CC4)[nH]n3)cc(N3CCN(C)CC3)n2)on1` [XL-228]: the Kd in assay [3] and in assay [1] was > 30 µM (inactive) in each case.

On to `CN1C/C=C/CCOc2cccc(c2)-c2ccnc(n2)Nc2cccc(c2)C1` [ZOTIRACICLIB], for which the Kd in assay [2] and in assay [1] was > 30 µM (inactive) in each case.

Values taken from ChEMBL document CHEMBL3991601, “The target landscape of clinical kinase drugs” (Science, 2017).
